Laboratory results: ChEMBL document CHEMBL3872249, “Computer design, synthesis, and bioactivity analyses of drugs like fingolimod used in the treatment of multiple sclerosis” (Bioorg Med Chem, 2017)
Activity calls are given as the source filed them. No cut-off for these calls is given here.

Key:
[1] = system: SK-N-SH; experiment: Effect on MMP9 mRNA expression in human SK-N-SH cells at EC10 by qPCR method relative to beta-actin; assay type: functional
[2] = system: U-118-MG; experiment: Effect on CYP19A1 mRNA expression in human U118MG cells at EC10 by qPCR method relative to beta-actin; assay type: functional
[3] = system: SK-N-SH; experiment: Effect on IFNG mRNA expression in human SK-N-SH cells at EC10 by qPCR method relative to beta-actin; assay type: functional
[4] = system: SK-N-SH; experiment: Effect on ICAM1 mRNA expression in human SK-N-SH cells at EC10 by qPCR method relative to beta-actin; assay type: functional
[5] = system: SK-N-SH; experiment: Effect on CFLAR mRNA expression in human SK-N-SH cells at EC10 by qPCR method relative to beta-actin; assay type: functional
[6] = system: SK-N-SH; experiment: Effect on VEGFA mRNA expression in human SK-N-SH cells at EC10 by qPCR method relative to beta-actin; assay type: functional
[7] = system: U-118-MG; experiment: Effect on FGF2 mRNA expression in human U118MG cells at EC10 by qPCR method relative to beta-actin; assay type: functional
[8] = system: SH-SY5Y; experiment: Effect on AKT1 mRNA expression in human SH-SY5Y cells at EC10 by qPCR method relative to beta-actin; assay type: functional
[9] = system: SH-SY5Y; experiment: Effect on COL1A1 mRNA expression in human SH-SY5Y cells at EC10 by qPCR method relative to beta-actin; assay type: functional
[10] = system: SK-N-SH; experiment: Effect on IL6 mRNA expression in human SK-N-SH cells at EC10 by qPCR method relative to beta-actin; assay type: functional
[11] = system: SH-SY5Y; experiment: Effect on FGF2 mRNA expression in human SH-SY5Y cells at EC10 by qPCR method relative to beta-actin; assay type: functional
[12] = system: SK-N-SH; experiment: Effect on TSHR mRNA expression in human SK-N-SH cells at EC10 by qPCR method relative to beta-actin; assay type: functional
[13] = system: SH-SY5Y; experiment: Effect on TSHR mRNA expression in human SH-SY5Y cells at EC10 by qPCR method relative to beta-actin; assay type: functional
[14] = system: U-118-MG; experiment: Effect on TSHR mRNA expression in human U118MG cells at EC10 by qPCR method relative to beta-actin; assay type: functional
[15] = system: SK-N-SH; experiment: Effect on FASLG mRNA expression in human SK-N-SH cells at EC10 by qPCR method relative to beta-actin; assay type: functional
[16] = system: U-118-MG; experiment: Effect on DRD2 mRNA expression in human U118MG cells at EC10 by qPCR method relative to beta-actin; assay type: functional
[17] = system: SH-SY5Y; experiment: Effect on IL10 mRNA expression in human SH-SY5Y cells at EC10 by qPCR method relative to beta-actin; assay type: functional
[18] = system: SK-N-SH; experiment: Effect on PIK3CG mRNA expression in human SK-N-SH cells at EC10 by qPCR method relative to beta-actin; assay type: functional
[19] = system: SK-N-SH; experiment: Effect on ADORA2A mRNA expression in human SK-N-SH cells at EC10 by qPCR method relative to beta-actin; assay type: functional
[20] = system: SK-N-SH; experiment: Effect on EDNRA mRNA expression in human SK-N-SH cells at EC10 by qPCR method relative to beta-actin; assay type: functional
[21] = system: SH-SY5Y; experiment: Effect on BCL2 mRNA expression in human SH-SY5Y cells at EC10 by qPCR method relative to beta-actin; assay type: functional
[22] = system: SK-N-SH; experiment: Effect on ADRB2 mRNA expression in human SK-N-SH cells at EC10 by qPCR method relative to beta-actin; assay type: functional
[23] = system: U-118-MG; experiment: Effect on MYC mRNA expression in human U118MG cells at EC10 by qPCR method relative to beta-actin; assay type: functional
[24] = system: SH-SY5Y; experiment: Effect on IFNG mRNA expression in human SH-SY5Y cells at EC10 by qPCR method relative to beta-actin; assay type: functional
[25] = system: SK-N-SH; experiment: Effect on JUN mRNA expression in human SK-N-SH cells at EC10 by qPCR method relative to beta-actin; assay type: functional
[26] = system: U-118-MG; experiment: Effect on EDNRA mRNA expression in human U118MG cells at EC10 by qPCR method relative to beta-actin; assay type: functional
[27] = system: SK-N-SH; experiment: Effect on FGF2 mRNA expression in human SK-N-SH cells at EC10 by qPCR method relative to beta-actin; assay type: functional
[28] = system: SH-SY5Y; experiment: Effect on OPRD1 mRNA expression in human SH-SY5Y cells at EC10 by qPCR method relative to beta-actin; assay type: functional
[29] = system: SH-SY5Y; experiment: Effect on ADRB2 mRNA expression in human SH-SY5Y cells at EC10 by qPCR method relative to beta-actin; assay type: functional
[30] = system: SK-N-SH; experiment: Effect on OPRD1 mRNA expression in human SK-N-SH cells at EC10 by qPCR method relative to beta-actin; assay type: functional
[31] = system: SK-N-SH; experiment: Effect on AKT1 mRNA expression in human SK-N-SH cells at EC10 by qPCR method relative to beta-actin; assay type: functional
[32] = molecular target: Sphingosine 1-phosphate receptor 1 (Homo sapiens) (UniProt P21453); experiment: Agonist activity at sphingosine-1-phosphate receptor in human U118MG cells assessed as increase in cAMP level at EC10 by direct immunoassay; assay type: functional, cell-based; conditions: U-118-MG
[33] = system: U-118-MG; experiment: Effect on EPHA1 mRNA expression in human U118MG cells at EC10 by qPCR method relative to beta-actin; assay type: functional
[34] = system: U-118-MG; experiment: Effect on JUN mRNA expression in human U118MG cells at EC10 by qPCR method relative to beta-actin; assay type: functional
[35] = system: SH-SY5Y; experiment: Effect on DRD2 mRNA expression in human SH-SY5Y cells at EC10 by qPCR method relative to beta-actin; assay type: functional
[36] = system: U-118-MG; experiment: Effect on PIK3CG mRNA expression in human U118MG cells at EC10 by qPCR method relative to beta-actin; assay type: functional
[37] = system: SH-SY5Y; experiment: Effect on NOS2 mRNA expression in human SH-SY5Y cells at EC10 by qPCR method relative to beta-actin; assay type: functional
[38] = system: SH-SY5Y; experiment: Effect on IL2 mRNA expression in human SH-SY5Y cells at EC10 by qPCR method relative to beta-actin; assay type: functional
[39] = system: U-118-MG; experiment: Effect on IFNG mRNA expression in human U118MG cells at EC10 by qPCR method relative to beta-actin; assay type: functional
[40] = system: SK-N-SH; experiment: Effect on NOS2 mRNA expression in human SK-N-SH cells at EC10 by qPCR method relative to beta-actin; assay type: functional
[41] = system: SK-N-SH; experiment: Effect on STAT3 mRNA expression in human SK-N-SH cells at EC10 by qPCR method relative to beta-actin; assay type: functional
[42] = system: SH-SY5Y; experiment: Effect on MAG mRNA expression in human SH-SY5Y cells at EC10 by qPCR method relative to beta-actin; assay type: functional
[43] = system: U-118-MG; experiment: Effect on MAG mRNA expression in human U118MG cells at EC10 by qPCR method relative to beta-actin; assay type: functional
[44] = system: SH-SY5Y; experiment: Effect on CCL3 mRNA expression in human SH-SY5Y cells at EC10 by qPCR method relative to beta-actin; assay type: functional

Sphingosine 1-phosphate receptor 1 (Homo sapiens), sequence (P21453 whole entry): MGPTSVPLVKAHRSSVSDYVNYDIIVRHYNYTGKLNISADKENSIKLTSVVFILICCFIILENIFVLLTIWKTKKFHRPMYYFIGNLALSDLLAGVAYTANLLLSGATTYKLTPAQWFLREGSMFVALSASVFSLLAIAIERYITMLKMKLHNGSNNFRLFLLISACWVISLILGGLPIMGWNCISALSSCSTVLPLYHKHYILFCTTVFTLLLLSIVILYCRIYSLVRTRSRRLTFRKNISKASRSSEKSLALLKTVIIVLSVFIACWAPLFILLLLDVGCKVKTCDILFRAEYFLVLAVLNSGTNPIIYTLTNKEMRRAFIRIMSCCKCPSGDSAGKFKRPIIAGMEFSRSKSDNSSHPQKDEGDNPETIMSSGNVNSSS

Compound: CCCCCCCCn1nnnc1CCC(N)(CO)CO.Cl
- fold change (FC) [1]: -5.1049
- fold change (FC) [2]: -3.3614
- fold change (FC) [3]: -3.6601
- fold change (FC) [4]: -9.5591
- fold change (FC) [5]: -3.3101
- fold change (FC) [6]: -7.9138
- fold change (FC) [7]: -4.6964
- fold change (FC) [8]: -4.1766
- fold change (FC) [9]: -4.939
- fold change (FC) [10]: -11.9743
- fold change (FC) [11]: -3.8516
- fold change (FC) [12]: 5.2621
- fold change (FC) [13]: 4.7801
- fold change (FC) [14]: 3.1513
- fold change (FC) [15]: -2.9626
- fold change (FC) [16]: -2.5398
- fold change (FC) [17]: -7.3448
- fold change (FC) [18]: -7.7108
- fold change (FC) [19]: -5.915
- fold change (FC) [20]: 7.0402
- fold change (FC) [21]: -4.8227
- fold change (FC) [22]: -4.3526
- fold change (FC) [23]: -4.1285
- fold change (FC) [24]: -2.7247
- fold change (FC) [25]: -7.2696
- fold change (FC) [26]: 4.4344
- fold change (FC) [27]: -6.7243
- fold change (FC) [28]: 2.8007
- fold change (FC) [29]: -4.5291
- fold change (FC) [30]: 3.2561
- fold change (FC) [31]: -5.3124
- Activity [32]: Active
- fold change (FC) [33]: -4.2116
- fold change (FC) [34]: -5.0916
- fold change (FC) [35]: -3.3881
- fold change (FC) [36]: -4.5938
- fold change (FC) [37]: -4.7071
- fold change (FC) [38]: -3.9071
- fold change (FC) [39]: -4.5394
- fold change (FC) [40]: -5.1582
- fold change (FC) [41]: -5.0696

Compound: CCCCCCCCn1nnnc1-c1ccc(C(O)CC(N)(CO)CO)cc1.Cl (stereo not given)
- fold change (FC) [10]: -4.899
- fold change (FC) [17]: -3.3797
- fold change (FC) [19]: -4.3394
- fold change (FC) [42]: 2.631
- Activity [32]: Active
- fold change (FC) [35]: -3.4837
- fold change (FC) [38]: -4.4248
- fold change (FC) [43]: 3.7859
- fold change (FC) [44]: -2.4869
